Source: publication PMC6130198 (ACS chemical biology, 2018)

Assays:
Fgr = Fgr (Homo sapiens, UniProt P09769); experiment: Z'-LYTE in vitro kinase assay; format: biochemical; details: data not shown
Hck = Hck (Homo sapiens, UniProt P08631); experiment: Z'-LYTE in vitro kinase assay; format: biochemical; details: data not shown
Syk = Syk (Homo sapiens, UniProt P43405); experiment: Z'-LYTE in vitro kinase assay; format: biochemical; details: data not shown
Fes = Fes (Homo sapiens, UniProt P07332); experiment: Z'-LYTE in vitro kinase assay; format: biochemical; details: data not shown
Flt3-ITD = experiment: Z'-LYTE in vitro kinase assay; format: biochemical; details: stated in words only
[1] = molecular target: other myeloid Src-family kinases; experiment: In vitro kinase assay; format: biochemical; details: data not shown
MV4–11 AML cells = experiment: MV4–11 AML cell xenograft model in NSG mice; details: 10 mg/kg once daily oral gavage, three weeks

Hck, sequence (P08631 whole entry): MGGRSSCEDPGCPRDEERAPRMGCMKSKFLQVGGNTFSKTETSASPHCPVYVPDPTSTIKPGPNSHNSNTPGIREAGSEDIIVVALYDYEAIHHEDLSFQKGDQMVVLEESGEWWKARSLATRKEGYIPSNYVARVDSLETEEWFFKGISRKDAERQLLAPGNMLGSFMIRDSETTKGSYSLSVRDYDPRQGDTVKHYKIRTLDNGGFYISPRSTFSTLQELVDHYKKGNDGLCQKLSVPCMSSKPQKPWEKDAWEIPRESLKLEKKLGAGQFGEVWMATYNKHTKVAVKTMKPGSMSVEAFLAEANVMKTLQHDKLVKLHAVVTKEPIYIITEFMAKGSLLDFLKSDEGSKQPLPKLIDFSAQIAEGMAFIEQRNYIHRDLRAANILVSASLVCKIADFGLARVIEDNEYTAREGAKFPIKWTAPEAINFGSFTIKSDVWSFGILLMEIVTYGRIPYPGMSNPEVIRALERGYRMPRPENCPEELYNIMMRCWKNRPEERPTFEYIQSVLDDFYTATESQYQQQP
Fes, sequence (P07332 whole entry): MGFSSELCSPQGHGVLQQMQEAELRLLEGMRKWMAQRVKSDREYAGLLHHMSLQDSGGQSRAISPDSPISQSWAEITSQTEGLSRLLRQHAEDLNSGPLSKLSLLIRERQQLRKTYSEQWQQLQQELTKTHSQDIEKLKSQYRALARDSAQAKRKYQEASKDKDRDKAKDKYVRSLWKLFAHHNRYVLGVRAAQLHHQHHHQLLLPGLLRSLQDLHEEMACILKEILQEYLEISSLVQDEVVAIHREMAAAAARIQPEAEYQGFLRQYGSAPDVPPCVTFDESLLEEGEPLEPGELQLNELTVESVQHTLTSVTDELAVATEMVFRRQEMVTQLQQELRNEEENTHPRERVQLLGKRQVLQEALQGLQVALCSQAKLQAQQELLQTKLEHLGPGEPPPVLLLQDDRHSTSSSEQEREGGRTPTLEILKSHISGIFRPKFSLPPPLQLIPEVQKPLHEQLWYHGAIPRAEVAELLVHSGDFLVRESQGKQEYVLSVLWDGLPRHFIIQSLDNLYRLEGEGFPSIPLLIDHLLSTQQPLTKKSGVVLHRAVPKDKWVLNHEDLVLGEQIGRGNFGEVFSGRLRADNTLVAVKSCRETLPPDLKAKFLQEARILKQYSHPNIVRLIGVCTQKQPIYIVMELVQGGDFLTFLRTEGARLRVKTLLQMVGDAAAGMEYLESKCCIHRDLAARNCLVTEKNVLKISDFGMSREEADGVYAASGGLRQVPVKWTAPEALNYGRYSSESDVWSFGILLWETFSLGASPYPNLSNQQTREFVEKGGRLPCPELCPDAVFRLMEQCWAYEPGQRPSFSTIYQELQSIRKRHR
Fgr, sequence (P09769 whole entry): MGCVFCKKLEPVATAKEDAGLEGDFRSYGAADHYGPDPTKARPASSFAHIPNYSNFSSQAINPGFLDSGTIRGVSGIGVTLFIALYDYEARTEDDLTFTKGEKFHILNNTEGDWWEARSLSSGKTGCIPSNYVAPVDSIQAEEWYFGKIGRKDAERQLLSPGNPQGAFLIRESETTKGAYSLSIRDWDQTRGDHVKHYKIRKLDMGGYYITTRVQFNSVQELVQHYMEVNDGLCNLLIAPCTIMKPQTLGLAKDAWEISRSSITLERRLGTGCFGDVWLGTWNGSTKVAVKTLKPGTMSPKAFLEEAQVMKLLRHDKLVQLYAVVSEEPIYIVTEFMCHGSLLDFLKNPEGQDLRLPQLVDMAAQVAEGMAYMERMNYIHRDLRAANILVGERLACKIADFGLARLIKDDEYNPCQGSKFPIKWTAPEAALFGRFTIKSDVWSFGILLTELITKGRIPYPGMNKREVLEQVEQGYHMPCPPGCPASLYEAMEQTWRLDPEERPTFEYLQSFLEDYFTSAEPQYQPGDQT

| SMILES | inhibition of kinase in vitro (Fgr) | inhibition of kinase in vitro (Hck) | inhibition of kinase in vitro (Syk) | inhibition of kinase in vitro (Fes) | inhibition of Flt3-ITD kinase activity in vitro (Flt3-ITD) | IC50 [1] | MV4–11 cells in bone marrow thin sections (human CD45 immunohistochemistry) (MV4–11 AML cells) | MV4–11 cells in spleen thin sections (human CD45 immunohistochemistry) (MV4–11 AML cells) | effect on leukemic cells in the peripheral blood (MV4–11 AML cells; flow cytometry) | effect on spleen engraftment of MV4–11 cells (MV4–11 AML cells; flow cytometry) | reduction of bone marrow engraftment of MV4–11 cells (MV4–11 AML cells; flow cytometry) |
| --- | --- | --- | --- | --- | --- | --- | --- | --- | --- | --- | --- |
| COc1cc2c(N3CCN(C(=O)Nc4ccc(OC(C)C)cc4)CC3)ncnc2cc1OCCCN1CCCCC1 [tandutinib] | does not inhibit | does not inhibit | does not inhibit | does not inhibit |  |  |  |  |  |  |  |
| CCN(CC)CCNC(=O)c1c(C)[nH]c(/C=C2\C(=O)Nc3ccc(F)cc32)c1C [sunitinib] | does not inhibit | does not inhibit |  |  |  |  |  |  |  |  |  |
| CNC(=O)c1cc(Oc2ccc(NC(=O)Nc3ccc(Cl)c(C(F)(F)F)c3)cc2)ccn1 [sorafenib] | does not inhibit | does not inhibit | does not inhibit | does not inhibit | nM inhibitor | > 100 µM | still stained strongly for MV4–11 cells | still stained strongly for MV4–11 cells | significant reduction | no effect | no effect |
| CC(C)(C)c1cc(NC(=O)Nc2ccc(-c3cn4c(n3)sc3cc(OCCN5CCOCC5)ccc34)cc2)no1 [quizartinib] | does not inhibit | does not inhibit | does not inhibit | does not inhibit |  |  |  |  |  |  |  |
